Assay results: patent US20140296137A1, “METHODS AND COMPOSITIONS FOR CONTROLLING ROTIFERS” (Los Alamos National Security, LLC, priority 2013, published 2014)
Like-named read-outs stand apart in the source and are kept apart here. Ends that are not written are not given here.

Key:
Chlorella protothecoides = tested on: Chlorella protothecoides
Procedure: (§1) This example provides the minimal inhibitory concentration (MIC) of antimicrobial peptides (AMPs) for algae. […] Therefore, the tolerance of algae to the AMPs listed in Table 2 of Example 1 was measured.
(§2) Briefly, the algae viability assay used herein measured the “health” of the algae cultures by looking at the color of the algae. […] A visual assay was used to determine the MIC for the individual AMPs on the algae. In each case, a light microscope with 20× magnification was used to observe algae color.
(§3) The effect of insecticidal and non-insecticidal AMPs on three different algae species was measured. The three algae species were Auxenochlorella protothecoides, Chlorella sorokiniana and Chlamydomonas reinhardtii.
(§4) Algae cultures were initiated in 96-well plates at an OD 750 of approximately 0.1. […] The antibiotics hygromycin and paromycin served as positive controls for inhibiting and/or reducing the growth rate of algae. […] The algae cultures were monitored by preparing microscopy slides with a small sample taken from the individual wells. The algae slides were then visualized under a 20× magnification microscope for algae viability as measured by algae color.

Chlorella sorokiniana = tested on: Chlorella sorokiniana
Procedure: as §1, §2, §3, §4

[1] = tested on: Chlamydomonas reinhardtii
Procedure: as §1, §2, §3, §4

Brachionus = format: in vivo; settings: AMP 0.5 mg/mL, 24 hr time point, room temperature, visual motility score
Text: (§5) Briefly, the rotifer motility assay used herein in the presence of a biocontrol agent (e.g., AMP) may be used as a measure of relative rotifer viability and competency. Rotifer diet, of which algae is considered to be an important food source, is one of the key environmental factors that impact the growth and multiplication of rotifers. In effect, the inability of a rotifer to be mobile (i.e., inability to swim toward a food source and/or to have mobile cilia that help trap food) prevents the rotifer from ingesting sufficient nutrients to further grow and reproduce. Thus, any approach that reduces and/or inhibits rotifer motility has a significant impact on an individual rotifer and therefore rotifer populations. With respect to algae cultures, reducing and/or inhibiting rotifer motility prevents and/or reduces any negative impact rotifers have on algae cultures (e.g., open pond systems for algae biomass and biofuel production). In other words, reducing and/or inhibiting rotifer motility reduces and/or prevents rotifers (e.g., infestations) from ingesting and consequently damaging algae cultures use in biofuel production.
(§6) The effect of the insecticidal and non-insecticidal AMPs of Table 2 (Example 1) on three different rotifer species was measured. The three rotifer species were Adineta vaga and Philodina acuticornis (class Bdelloid rotifers), and Brachionus (Monogononta class). A visual motility assay was used to determine the impact of the individual AMPs on rotifer viability. In each case, a light microscope with 20× magnification was used to observe rotifer motility (activity). […] FIGS. 1A, 1C and 1E show a 20× magnification of Adineta vaga, Philodina acuticornis and Brachionus (untreated), respectively. FIGS. 1B, 1D and 1F show a 20× magnification of Adineta vaga, Philodina acuticornis and Brachionus (AMP treated), respectively.
(§7) Rotifer cultures were initiated in 12-well or 24-well plates at a density of approximately 100-200 rotifers/mL. The 12-well plates contained a volume of 1 mL per well, and the 24-well plates contained a volume of about 0.25 mL to about 0.35 mL per well. Individual rotifer cultures (individual wells) were incubated with a select AMP at a concentration of 0.5 mg/mL (or a range of about 78 μM to about 365 μM) for 18, 21 and 24 hours at room temperature. The rotifer cultures were monitored by preparing microscopy slides with a small sample taken from the individual wells. The slides were then visualized under a 20× magnification microscope for rotifer motility. […] The scoring system was based on observing a subset of the rotifer population from each well. The impact on the subset of rotifers observed served as a representative of the impact on the entire rotifer population for that particular AMP treatment.
(§8) A summary of the motility assay (or “Kill Assay”) for each insecticidal and non-insecticidal AMP incubated with the three different rotifer species for the 24 hour time point is provided below in Table 5 (insecticidal AMPs) and Table 6 (non-insecticidal AMPs). The 18 and 21 hour time points gave similar results to the 24 hour time point.

Philodina acuticornis = format: in vivo; set-up: key to the marks not given beside the values; settings: AMP 0.5 mg/mL, 24 hr time point, room temperature, visual motility score
Text: as §5, §6, §7, §8

Adineta vaga = format: in vivo; set-up: key to the marks not given beside the values; settings: AMP 0.5 mg/mL, 24 hr time point, room temperature, visual motility score
Text: as §5, §6, §7, §8

[2] = 5-6 days, room temperature, 96-well, algae colour under 20× microscope, ND = AMP killed all the algae

Molecule | Minimal Inhibitory Concentration (MIC) Chlorella protothecoides (Chlorella protothecoides; [2]) [µM] | Minimal Inhibitory Concentration (MIC) Chlorella sorokiana (Chlorella sorokiniana; [2]) [µM] | Minimal Inhibitory Concentration (MIC) Chlamydomonas reinhardtii [1, 2] | “Kill” Efficiency Brachionus (Brachionus) | “Kill” Efficiency Philodina (Philodina acuticornis) | “Kill” Efficiency Adineta vaga (Adineta vaga) | Minimal Inhibitory Concentration (MIC) Chlorella sorokiana (Chlorella sorokiniana) [µM] | Minimal Inhibitory Concentration (MIC) Chlorella protothecoides (Chlorella protothecoides) [µM] | Minimal Inhibitory Concentration (MIC) Chlamydomonas reinhardtii [1] [µM]
WLGSALKIGAKLLPSVVGLFKKKKQ [Ponericin W1] | 23.1 | 46.1 | 11.5 µM | +++ | +++ | +++ | – | – | –
FIHHIFRGIVHAGRSIGRFLTG [Piscidin 3] | – | – | – | +++ | +++ | +++ | 100.3 | – | –
GIWGTALKWGVKLLPKLVGMAQTKKQ [Ponericin W4] | 43.8 | 87.6 | 11 µM | +++ | +++ | +++ | – | – | –
GWKDWLNKGKEWLKKKGPGIMKAALKAATQ [Ponericin G3] | 37 | 37 | 9.2 µM | +++ | +++ | +++ | – | – | –
IWLTALKFLGKHAAKHLAKQQLSKL [Lycotoxin-1, Lycotoxin I] | 44 | 88 | 22 µM | +++ | +++ | +++ | – | – | –
FSFKRLKGFAKKLWNSKLARKIRTKGLKYVKNFAKDMLSEGEEAPPAAEPPVEAPQ [Im-1] | 9.9 | 19.7 | 9.9 µM | +++ | +++ | +++ | – | – | –
DFKDWMKTAGEWLKKKGPGILKAAMAAAT [Ponericin G4] | 158 | 79 | 19.8 µM | – | – | – | – | – | –
KWKLFKKIEKVGQNIRDGIIKAGPAVAVVGQATQIAK [Cecropin A] | 124.9 | 124.9 | 15.6 µM | – | ++ | +++ | – | – | –
GFGSLFKFLAKKVAKTVAKQAAKQGAKYVANKHME [Cupiennin 1D] | 16.5 | 65.9 | 32.9 µM | – | +++ | +++ | – | – | –
FFHHIFRGIVHVGKTIHKLVTG [Piscidin 2] | 24.6 | – | – | +++ | +++ | +++ | 24.6 | – | –
FFHHIFRGIVHVGKTIHRLVTG [Piscidin 1] | – | – | – | +++ | +++ | +++ | 24.3 | 12.2 | 12.2
LLKELWTKIKGAGKAVLGKIKGLL [Ponericin L2] | 48.5 | 97 | 12.1 µM | – | +++ | +++ | – | – | –
GLVDVLGKVGGLIKKLLP [Ponericin G6] | 274.9 | 274.9 | 17.2 µM | +++ | – | – | – | – | –
FWGALIKGAAKLIPSVVGLFKKKQ [Ponericin W5] | 12 | 24 | 12 µM | +++ | +++ | +++ | – | – | –
CC[C@H](C)[C@H](NC(=O)CN)C(=O)NCC(=O)N[C@@H](C)C(=O)N[C@H](C(=O)N[C@@H](CC(C)C)C(=O)N[C@@H](CCCCN)C(=O)N[C@H](C(=O)N[C@@H](CC(C)C)C(=O)N[C@H](C(=O)N[C@H](C(=O)NCC(=O)N[C@@H](CC(C)C)C(=O)N1CCC[C@H]1C(=O)N[C@@H](C)C(=O)N[C@@H](CC(C)C)C(=O)N[C@H](C(=O)N[C@@H](CO)C(=O)N[C@@H](Cc1c[nH]c2ccccc12)C(=O)N[C@H](C(=O)N[C@@H](CCCCN)C(=O)N[C@@H](CCCNC(=N)N)C(=O)N[C@@H](CCCCN)C(=O)N[C@@H](CCCNC(=N)N)C(=O)N[C@@H](CCC(N)=O)C(=O)N[C@@H](CCC(N)=O)C(N)=O)[C@@H](C)CC)[C@@H](C)CC)[C@@H](C)O)[C@@H](C)O)C(C)C)C(C)C [Melittin] | 11 | 11 | ND (kills) | – | +++ | +++ | – | – | –
GWKDWAKKAGGWLKKKGPGMAKAALKAAMQ [Ponericin G1] | 78 | 155.8 | 19.5 µM | +++ | +++ | +++ | – | – | –
MASRHMFLPLIGRVLSGIL [MsrA3] | 59.2 | – | 29.6 µM | + | +++ | +++ | – | – | –
GIGKFLHSAKKFGKAFVGEIMNS [Magainin 2] | – | – | – | + | +++ | +++ | 50.7 | – | –
